Reference: ChEMBL document CHEMBL4732067, “Synthesis and evaluation of new compounds bearing 3-(4-aminopiperidin-1-yl)methyl magnolol scaffold as anticancer agents for the treatment of non-small cell lung cancer via targeting autophagy” (Eur J Med Chem, 2021)
Calls of active or inactive are those of the source. The calls are words filed in the database; no cut-off is given here.

Legend:
NCI-H460 [1] = experiment: Antitumor activity against human NCI-H460 cells xenografted in nude BABL/c mouse assessed as tumor growth inhibition at 20 mg/kg, po administered once daily and measured every two days by caliper method relative to control; assay type: functional; details: 48 h, read-out: TGI
[2] = Toxicity in nude BALB/c mouse xenografted with human NCI-H460 cells assessed as abnormalities in tissue at 20 to 40 mg/kg, po administered once daily; assay type: organism-based; details: in vivo, dose 20-40 mg/kg
NCI-H441 = experiment: Antiproliferative activity against human NCI-H441 cells […] assessed as reduction in cell viability after 72 hrs by MTT assay; assay type: functional, cell-based; details: NCI-H441, 72 h
NCI-H460 [3] = experiment: Induction of cell cycle arrest in human NCI-H460 cells assessed as accumulation at G2/M phase at 1 uM incubated for 24 hrs by propidium iodide staining based flow cytometry (reference value: 16.71 %); assay type: functional
[4] = Antitumor activity against mouse C26 cells xenografted in BALB/c mouse assessed as tumor growth inhibition at 50 mg/kg, po administered once daily and measured every two days by caliper method relative to control; assay type: functional; details: 48 h, read-out: TGI
NCI-H460 [5] = experiment: Induction of autophagy in human NCI-H460 cells assessed as up regulation of LC3-2 protein expression after 24 hrs by Western blot analysis; assay type: functional, cell-based; details: dose 0.5-10 µM
NCI-H460 [6] = experiment: Induction of apoptosis in human NCI-H460 cells assessed as viable cells at 2 uM after 48 hrs by Annexin V-FITC/propidium iodide staining based flow cytometric analysis (reference value: 91.528 %); assay type: functional; details: read-out: Activity
NCI-H460 [7] = experiment: Induction of cell cycle arrest in human NCI-H460 cells assessed as accumulation at G0/G1 phase at 0.5 uM incubated for 24 hrs by propidium iodide staining based flow cytometry (reference value: 53.97 %); assay type: functional
NCI-H460 [8] = experiment: Antitumor activity against human NCI-H460 cells xenografted in nude BABL/c mouse assessed as upregulation of LC3-II expression in tumor tissue at 20 mg/kg, po administered once daily in presence of chloroquine diphosphate by Western blot analysis; assay type: functional, organism-based
NCI-H460 [9] = experiment: Induction of apoptosis in human NCI-H460 cells assessed as early apoptotic cells at 10 uM after 48 hrs by Annexin V-FITC/propidium iodide staining based flow cytometric analysis (reference value: 3.980 %); assay type: functional
NCI-H460 [10] = experiment: Induction of apoptosis in human NCI-H460 cells assessed as viable cells at 10 uM after 48 hrs by Annexin V-FITC/propidium iodide staining based flow cytometric analysis (reference value: 91.528 %); assay type: functional; details: read-out: Activity
NCI-H460 [11] = experiment: Induction of apoptosis in human NCI-H460 cells assessed as necrotic cells at 10 uM after 48 hrs by Annexin V-FITC/propidium iodide staining based flow cytometric analysis (reference value: 0.498 %); assay type: functional
NCI-H460 [12] = experiment: Antitumor activity against human NCI-H460 cells xenografted in nude BABL/c mouse assessed as tumor growth inhibition at 40 mg/kg, po administered once daily and measured every two days by caliper method relative to control; assay type: functional; details: 48 h, read-out: TGI
NCI-H460 [13] = experiment: Induction of apoptosis in human NCI-H460 cells assessed as necrotic cells at 2 uM after 48 hrs by Annexin V-FITC/propidium iodide staining based flow cytometric analysis (reference value: 0.498 %); assay type: functional
NCI-H460 [14] = experiment: Induction of autophagy-induced cell death in human H460 cells at 0.04 to 5 uM after 24 hrs in presence of chloroquine diphosphate by MTT assay; assay type: functional, cell-based; details: dose 0.04-5 µM
NCI-H460 [15] = experiment: Induction of autophagy in human NCI-H460 cells assessed as up regulation of Beclin 1 protein expression after 24 hrs by Western blot analysis; assay type: functional, cell-based; details: dose 0.5-10 µM
NCI-H460 [16] = experiment: Antitumor activity against human NCI-H460 cells xenografted in nude BABL/c mouse assessed as tumor growth inhibition at 20 mg/kg, po administered once daily and measured every two days in presence of chloroquine diphosphate by caliper method relative to control; assay type: functional; details: 48 h, read-out: TGI
NCI-H1650 = experiment: Antiproliferative activity against human NCI-H1650 cells expressing EGFR mutant assessed as reduction in cell viability after 72 hrs by MTT assay; assay type: functional, cell-based; details: NCI-H1650, 72 h
NCI-H460 [17] = experiment: Induction of apoptosis in human NCI-H460 cells assessed as late apoptotic cells at 10 uM after 48 hrs by Annexin V-FITC/propidium iodide staining based flow cytometric analysis (reference value: 3.995 %); assay type: functional
NCI-H460 [18] = experiment: Induction of cell cycle arrest in human NCI-H460 cells assessed as accumulation at G0/G1 phase at 5 uM incubated for 24 hrs by propidium iodide staining based flow cytometry (reference value: 53.97 %); assay type: functional
NCI-H460 [19] = experiment: Induction of apoptosis in human NCI-H460 cells assessed as early apoptotic cells at 1 uM after 48 hrs by Annexin V-FITC/propidium iodide staining based flow cytometric analysis (reference value: 3.980 %); assay type: functional
NCI-H460 [20] = experiment: Induction of apoptosis in human NCI-H460 cells assessed as necrotic cells at 1 uM after 48 hrs by Annexin V-FITC/propidium iodide staining based flow cytometric analysis (reference value: 0.498 %); assay type: functional
NCI-H460 [21] = experiment: Induction of apoptosis in human NCI-H460 cells assessed as early apoptotic cells at 2 uM after 48 hrs by Annexin V-FITC/propidium iodide staining based flow cytometric analysis (reference value: 3.980 %); assay type: functional
HCC827 = experiment: Antiproliferative activity against human HCC827 cells assessed as reduction in cell viability after 72 hrs by MTT assay; assay type: functional, cell-based; details: HCC827, 72 h
NCI-H1975 = experiment: Antiproliferative activity against human NCI-H1975 cells assessed as reduction in cell viability after 72 hrs by MTT assay; assay type: functional, cell-based; details: NCI-H1975, 72 h
NCI-H460 [22] = experiment: Induction of cell cycle arrest in human NCI-H460 cells assessed as accumulation at S phase at 0.5 uM incubated for 24 hrs by propidium iodide staining based flow cytometry (reference value: 29.32 %); assay type: functional
[23] = Toxicity in nude BALB/c mouse xenografted with C26 cells assessed as abnormalities in heart size and morphology at 50 mg/kg, po administered once daily; assay type: organism-based; details: in vivo
L929 = experiment: Cytotoxicity against mouse L929 cells; assay type: cell-based
[24] = Antiproliferative activity against human SPCA1 cells expressing wild type EGFR assessed as reduction in cell viability after 72 hrs by MTT assay; assay type: functional, cell-based; details: SPCA1, 72 h
NCI-H460 [25] = experiment: Induction of cell cycle arrest in human NCI-H460 cells assessed as accumulation at G0/G1 phase at 1 uM incubated for 24 hrs by propidium iodide staining based flow cytometry (reference value: 53.97 %); assay type: functional
NCI-H460 [26] = experiment: Induction of cell cycle arrest in human NCI-H460 cells assessed as accumulation at G2/M phase at 5 uM incubated for 24 hrs by propidium iodide staining based flow cytometry (reference value: 16.71 %); assay type: functional
[27] = Metabolic stability in human liver microsomes assessed as half life; assay type: ADME, Microsome
NCI-H460 [28] = experiment: Induction of apoptosis in human NCI-H460 cells assessed as viable cells at 5 uM after 48 hrs by Annexin V-FITC/propidium iodide staining based flow cytometric analysis (reference value: 91.528 %); assay type: functional; details: read-out: Activity
NCI-H460 [29] = experiment: Induction of apoptosis in human NCI-H460 cells assessed as early apoptotic cells at 5 uM after 48 hrs by Annexin V-FITC/propidium iodide staining based flow cytometric analysis (reference value: 3.980 %); assay type: functional

## C=CCc1ccc(OC(C)C)c(-c2cc(CC=C)cc(CN3CCC(N)CC3)c2O)c1
NCI-H460 [1]
  inhibition in vivo at 20 mg/kg: 33.5%
[2]
  Activity: Non-Toxic
NCI-H441
  IC50: 940 nM
NCI-H460 [3]
  Activity: 19.64%
[4]
  inhibition in vivo at 50 mg/kg: 65.4%
NCI-H460 [5]
  Activity: Dose-dependent effect
NCI-H460 [6]
  viability at 2 µM: 88.8%
NCI-H460 [7]
  Activity: 54.79%
NCI-H460 [8]
  Activity: Active
NCI-H460 [9]
  Activity: 34.82%
NCI-H460 [10]
  viability at 10 µM: 30%
NCI-H460 [11]
  Activity: 1.58%
NCI-H460 [12]
  inhibition in vivo at 40 mg/kg: 56.8%
NCI-H460 [13]
  Activity: 0.874%
NCI-H460 [14]
  Activity: Active
NCI-H460 [15]
  Activity: Dose-dependent effect
NCI-H460 [16]
  inhibition in vivo at 20 mg/kg: 55.9%
NCI-H1650
  IC50: 820 nM
NCI-H460 [17]
  Activity: 33.48%
NCI-H460 [18]
  Activity: 59.89%
NCI-H460 [19]
  Activity: 4.467%
NCI-H460 [20]
  Activity: 0.394%
NCI-H460 [21]
  Activity: 5.363%
HCC827
  IC50: 630 nM
NCI-H1975
  IC50: 930 nM
NCI-H460 [22]
  Activity: 23.58%
[23]
  Activity: Non-Toxic
L929
  IC50: 6240 nM
[24]
  IC50: 1080 nM
NCI-H460 [25]
  Activity: 56.47%
NCI-H460 [26]
  Activity: 17.5%
[27]
  half-life: 2.62 h
NCI-H460 [28]
  viability at 5 µM: 53.5%
NCI-H460 [29]
  Activity: 30.087%
